Each block holds one compound with its values, some of them ahead of it.
Key:
[1] = target: GDP-bound NRAS wild-type protein (Homo sapiens, UniProt P01111); assay: Binding to NRAS by surface plasmon resonance (SPR), KD and KD ratio to KRAS; details: ratio of KD for GDP-bound NRAS wild-type protein to KD for KRAS
Procedure, shortened: (§1)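 Biotinylated GDP-bound RAS was captured at about 100–300 RU. Running buffer: HBS pH 7.4, 10 mM MgCl2, 10 µM GDP, 1 mM DTT, 0.01% Tween 20, 4% DMSO.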

HRAS wild-type protein = HRAS wild-type protein (Homo sapiens, UniProt P01112); assay: Binding to HRAS by surface plasmon resonance (SPR), KD and KD ratio to KRAS; details: ratio of KD for HRAS wild-type protein to KD for KRAS
Procedure, shortened: as §1

[2] = tested on: human lung cancer strain NCI-H441; format: cell-based
Procedure, shortened: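 Step one: dispense the test compound in serial DMSO dilutions. Step three: add the reagent and measure […].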

Sequence of HRAS wild-type protein (P01112 whole entry): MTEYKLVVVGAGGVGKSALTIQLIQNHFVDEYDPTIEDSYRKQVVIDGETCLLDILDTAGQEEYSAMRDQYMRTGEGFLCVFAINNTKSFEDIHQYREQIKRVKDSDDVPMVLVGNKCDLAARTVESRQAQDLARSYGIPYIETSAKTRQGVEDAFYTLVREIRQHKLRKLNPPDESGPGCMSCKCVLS
Sequence of GDP-bound NRAS wild-type protein (P01111 whole entry): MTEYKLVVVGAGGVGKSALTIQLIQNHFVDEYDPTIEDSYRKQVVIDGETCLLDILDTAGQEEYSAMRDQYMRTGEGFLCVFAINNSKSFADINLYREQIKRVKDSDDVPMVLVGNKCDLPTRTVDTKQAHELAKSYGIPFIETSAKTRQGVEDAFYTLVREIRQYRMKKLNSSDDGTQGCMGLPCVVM

SMILES: CCO[C@@H]1C[C@H]2C(=O)NC3(CCC3)C(=O)N(C)[C@@H](C3CCCC3)C(=O)N(C)[C@H](C(=O)N(C)C)CC(=O)N(C)[C@@H](CC)C(=O)N[C@@H]([C@@H](C)CC)C(=O)N(C)CC(=O)N(C)[C@H]3CCCCCN(C3=O)[C@@H](Cc3ccc(F)c(OC)c3)C(=O)N(C)CC(=O)N[C@@H](CCc3cc(F)c(C(F)(F)F)c(F)c3)C(=O)N2C1 [PP0915]
NRAS /KRAS [1]: B (a compound having 3 or more and less than 10 is denoted as B) | HRAS /KRAS (HRAS wild-type protein): B (a compound having 3 or more and less than 10 is denoted as B) | IC50 [2]: 37.6 nM

SMILES: CCO[C@@H]1C[C@H]2C(=O)NC3(CCC3)C(=O)N(C)[C@@H](C3CCCC3)C(=O)N(C)[C@H](C(=O)N3CCOCC3)CC(=O)N(C)[C@@H](CC(C)C)C(=O)N[C@@H]([C@@H](C)CC)C(=O)N(C)CC(=O)N(C)[C@H]3CCCCCN(C3=O)[C@@H](Cc3ccc4sccc4c3)C(=O)N(C)CC(=O)N[C@@H](CCc3cc(F)c(C(F)(F)F)c(F)c3)C(=O)N2C1 [PP0920]
NRAS /KRAS [1]: B (a compound having 3 or more and less than 10 is denoted as B) | HRAS /KRAS (HRAS wild-type protein): B (a compound having 3 or more and less than 10 is denoted as B) | IC50 [2]: 75.5 nM

SMILES: CCO[C@@H]1C[C@H]2C(=O)NC3(CCC3)C(=O)N(C)[C@@H](C3CCCC3)C(=O)N(C)[C@H](C(=O)N3CCOCC3)CC(=O)N(C)[C@@H](CC(C)C)C(=O)N[C@@H]([C@@H](C)CC)C(=O)N(C)CC(=O)N(C)[C@H]3CCCCCN(C3=O)[C@@H](Cc3ccc4ccsc4c3)C(=O)N(C)CC(=O)N[C@@H](CCc3cc(F)c(C(F)(F)F)c(F)c3)C(=O)N2C1 [PP0921]
NRAS /KRAS [1]: B (a compound having 3 or more and less than 10 is denoted as B) | HRAS /KRAS (HRAS wild-type protein): B (a compound having 3 or more and less than 10 is denoted as B) | IC50 [2]: 139 nM

SMILES: CCO[C@@H]1C[C@H]2C(=O)NC3(CCC3)C(=O)N(C)[C@@H](C3CCCC3)C(=O)N(C)[C@H](C(=O)N3CCOCC3)CC(=O)N(C)[C@@H](CC(C)C)C(=O)N[C@@H]([C@@H](C)CC)C(=O)N(C)CC(=O)N(C)[C@H]3CCCCCN(C3=O)[C@@H](Cc3ccc(F)c(C)c3)C(=O)N(C)CC(=O)N[C@@H](CCc3cc(F)c(C(F)(F)F)c(F)c3)C(=O)N2C1 [PP0922]
NRAS /KRAS [1]: B (a compound having 3 or more and less than 10 is denoted as B) | HRAS /KRAS (HRAS wild-type protein): B (a compound having 3 or more and less than 10 is denoted as B) | IC50 [2]: 98.2 nM

SMILES: CCO[C@@H]1C[C@H]2C(=O)NC3(CCC3)C(=O)N(C)[C@@H](C3CCCC3)C(=O)N(C)[C@H](C(=O)N3CCOCC3)CC(=O)N(C)[C@@H](CC(C)C)C(=O)N[C@@H]([C@@H](C)CC)C(=O)N(C)CC(=O)N(C)[C@H]3CCCCCN(C3=O)[C@@H](Cc3ccc(F)cc3OC)C(=O)N(C)CC(=O)N[C@@H](CCc3cc(F)c(C(F)(F)F)c(F)c3)C(=O)N2C1 [PP0924]
NRAS /KRAS [1]: B (a compound having 3 or more and less than 10 is denoted as B) | HRAS /KRAS (HRAS wild-type protein): B (a compound having 3 or more and less than 10 is denoted as B) | IC50 [2]: 92 nM

SMILES: CCCN1C(=O)CN(C)C(=O)CN(C)C(=O)[C@H]([C@@H](C)CC)NC(=O)[C@@H]2CCCCCCC[C@@H](NC(=O)[C@@H]3C[C@@H](OCC)CN3C(=O)[C@H](CCc3cc(F)c(C(F)(F)F)c(F)c3)NC(=O)CN(C)C(=O)[C@@H]1Cc1ccc(C(F)(F)F)cc1)C(=O)N(C)[C@@H](C1CCCC1)C(=O)N(C)[C@H](C(=O)N(C)C)CC(=O)N2C [PP0925]
NRAS /KRAS [1]: A (a compound having 10 or more and less than 20 is denoted as A) | HRAS /KRAS (HRAS wild-type protein): B (a compound having 3 or more and less than 10 is denoted as B) | IC50 [2]: 91 nM

SMILES: CCO[C@@H]1C[C@H]2C(=O)NC3(CCC3)C(=O)N(C)[C@@H](C3CCCC3)C(=O)N(C)[C@H](C(=O)N3CCOCC3)CC(=O)N(C)[C@@H](Cc3ccc(F)c(F)c3)C(=O)N[C@@H]([C@@H](C)CC)C(=O)N(C)CC(=O)N(C)[C@H]3CCCCCN(C3=O)[C@@H](Cc3ccc(C(F)(F)F)cc3)C(=O)N(C)CC(=O)N[C@@H](CCc3cc(F)c(C(F)(F)F)c(F)c3)C(=O)N2C1 [PP0928]
NRAS /KRAS [1]: A (a compound having 10 or more and less than 20 is denoted as A) | HRAS /KRAS (HRAS wild-type protein): B (a compound having 3 or more and less than 10 is denoted as B) | IC50 [2]: 182 nM

SMILES: CCO[C@@H]1C[C@H]2C(=O)NC3(CCC3)C(=O)N(C)[C@@H](C3CCCC3)C(=O)N(C)[C@H](C(=O)N3CCOCC3)CC(=O)N(C)[C@@H](Cc3ccccc3Cl)C(=O)N[C@@H]([C@@H](C)CC)C(=O)N(C)CC(=O)N(C)[C@H]3CCCCCN(C3=O)[C@@H](Cc3ccc(C(F)(F)F)cc3)C(=O)N(C)CC(=O)N[C@@H](CCc3cc(F)c(C(F)(F)F)c(F)c3)C(=O)N2C1 [PP0929]
NRAS /KRAS [1]: A (a compound having 10 or more and less than 20 is denoted as A) | HRAS /KRAS (HRAS wild-type protein): B (a compound having 3 or more and less than 10 is denoted as B) | IC50 [2]: 317 nM

SMILES: CCO[C@@H]1C[C@H]2C(=O)NC3(CCC3)C(=O)N(C)[C@@H](C3CCCC3)C(=O)N(C)[C@H](C(=O)N3CCOCC3)CC(=O)N(C)[C@@H](Cc3ccc(C)cc3)C(=O)N[C@@H]([C@@H](C)CC)C(=O)N(C)CC(=O)N(C)[C@H]3CCCCCN(C3=O)[C@@H](Cc3ccc(C(F)(F)F)cc3)C(=O)N(C)CC(=O)N[C@@H](CCc3cc(F)c(C(F)(F)F)c(F)c3)C(=O)N2C1 [PP0933]
NRAS /KRAS [1]: A (a compound having 10 or more and less than 20 is denoted as A) | HRAS /KRAS (HRAS wild-type protein): B (a compound having 3 or more and less than 10 is denoted as B) | IC50 [2]: 150 nM

SMILES: CCO[C@@H]1C[C@H]2C(=O)NC3(CCC3)C(=O)N(C)[C@@H](C3CCCC3)C(=O)N(C)[C@H](C(=O)N(C)C)CC(=O)N(C)[C@@H](Cc3cccc(Cl)c3)C(=O)N[C@@H]([C@@H](C)CC)C(=O)N(C)CC(=O)N(C)[C@H]3CCCCCN(C3=O)[C@@H](Cc3ccc(C(F)(F)F)cc3)C(=O)N(C)CC(=O)N[C@@H](CCc3cc(F)c(C(F)(F)F)c(F)c3)C(=O)N2C1 [PP0939]
NRAS /KRAS [1]: B (a compound having 3 or more and less than 10 is denoted as B) | HRAS /KRAS (HRAS wild-type protein): B (a compound having 3 or more and less than 10 is denoted as B) | IC50 [2]: 114 nM

More lines, main results first:

IC50 [2]: 27.7 nM
SMILES: CCO[C@@H]1C[C@H]2C(=O)NC3(CCC3)C(=O)N(C)[C@@H](C3CCCC3)C(=O)N(C)[C@H](C(=O)N3CCOCC3)CC(=O)N(C)[C@@H](CC(C)C)C(=O)N[C@@H]([C@@H](C)CC)C(=O)N(C)CC(=O)N(C)[C@H]3CCCCCN(C3=O)[C@@H](Cc3ccc(F)cc3Cl)C(=O)N(C)CC(=O)N[C@@H](CCc3cc(F)c(C(F)(F)F)c(F)c3)C(=O)N2C1 [PP0918]
NRAS /KRAS [1]: B (a compound having 3 or more and less than 10 is denoted as B) | HRAS /KRAS (HRAS wild-type protein): B (a compound having 3 or more and less than 10 is denoted as B)

IC50 [2]: 110 nM
SMILES: CCO[C@@H]1C[C@H]2C(=O)NC3(CCC3)C(=O)N(C)[C@@H](C3CCCC3)C(=O)N(C)[C@H](C(=O)N3CCOCC3)CC(=O)N(C)[C@@H](CC(C)C)C(=O)N[C@@H]([C@@H](C)CC)C(=O)N(C)CC(=O)N(C)[C@H]3CCCCCN(C3=O)[C@@H](Cc3ccc(F)c(Cl)c3)C(=O)N(C)CC(=O)N[C@@H](CCc3cc(F)c(C(F)(F)F)c(F)c3)C(=O)N2C1 [PP0919]
NRAS /KRAS [1]: B (a compound having 3 or more and less than 10 is denoted as B) | HRAS /KRAS (HRAS wild-type protein): B (a compound having 3 or more and less than 10 is denoted as B)

IC50 [2]: 113 nM
SMILES: CCO[C@@H]1C[C@H]2C(=O)NC3(CCC3)C(=O)N(C)[C@@H](C3CCCC3)C(=O)N(C)[C@H](C(=O)N3CCOCC3)CC(=O)N(C)[C@@H](Cc3ccccc3F)C(=O)N[C@@H]([C@@H](C)CC)C(=O)N(C)CC(=O)N(C)[C@H]3CCCCCN(C3=O)[C@@H](Cc3ccc(C(F)(F)F)cc3)C(=O)N(C)CC(=O)N[C@@H](CCc3cc(F)c(C(F)(F)F)c(F)c3)C(=O)N2C1 [PP0926]
NRAS /KRAS [1]: B (a compound having 3 or more and less than 10 is denoted as B) | HRAS /KRAS (HRAS wild-type protein): B (a compound having 3 or more and less than 10 is denoted as B)

IC50 [2]: 181 nM
SMILES: CCO[C@@H]1C[C@H]2C(=O)NC3(CCC3)C(=O)N(C)[C@@H](C3CCCC3)C(=O)N(C)[C@H](C(=O)N3CCOCC3)CC(=O)N(C)[C@@H](Cc3ccccc3C)C(=O)N[C@@H]([C@@H](C)CC)C(=O)N(C)CC(=O)N(C)[C@H]3CCCCCN(C3=O)[C@@H](Cc3ccc(C(F)(F)F)cc3)C(=O)N(C)CC(=O)N[C@@H](CCc3cc(F)c(C(F)(F)F)c(F)c3)C(=O)N2C1 [PP0931]
NRAS /KRAS [1]: A (a compound having 10 or more and less than 20 is denoted as A) | HRAS /KRAS (HRAS wild-type protein): B (a compound having 3 or more and less than 10 is denoted as B)

IC50 [2]: 26.9 nM
SMILES: CCO[C@@H]1C[C@H]2C(=O)NC3(CCC3)C(=O)N(C)[C@@H](C3CCCC3)C(=O)N(C)[C@H](C(=O)N(C)C)CC(=O)N(C)[C@@H](Cc3cccc(F)c3)C(=O)N[C@@H]([C@@H](C)CC)C(=O)N(C)CC(=O)N(C)[C@H]3CCCCCN(C3=O)[C@@H](Cc3ccc(C(F)(F)F)cc3)C(=O)N(C)CC(=O)N[C@@H](CCc3cc(F)c(C(F)(F)F)c(F)c3)C(=O)N2C1 [PP0935]
NRAS /KRAS [1]: B (a compound having 3 or more and less than 10 is denoted as B) | HRAS /KRAS (HRAS wild-type protein): B (a compound having 3 or more and less than 10 is denoted as B)

IC50 [2]: 42.4 nM
SMILES: CCO[C@@H]1C[C@H]2C(=O)NC3(CCC3)C(=O)N(C)[C@@H](C3CCCC3)C(=O)N(C)[C@H](C(=O)N(C)C)CC(=O)N(C)[C@@H](Cc3ccc(F)cc3)C(=O)N[C@@H]([C@@H](C)CC)C(=O)N(C)CC(=O)N(C)[C@H]3CCCCCN(C3=O)[C@@H](Cc3ccc(C(F)(F)F)cc3)C(=O)N(C)CC(=O)N[C@@H](CCc3cc(F)c(C(F)(F)F)c(F)c3)C(=O)N2C1 [PP0936]
NRAS /KRAS [1]: B (a compound having 3 or more and less than 10 is denoted as B) | HRAS /KRAS (HRAS wild-type protein): B (a compound having 3 or more and less than 10 is denoted as B)

From patent EP4603105A1, “PHARMACEUTICAL COMPOSITION CONTAINING CYCLIC COMPOUND HAVING SELECTIVE KRAS INHIBITORY EFFECT AGAINST HRAS AND NRAS” (CHUGAI SEIYAKU KABUSHIKI KAISHA, priority 2022, dated 2024)
